# Assay results from patent US7528138B2, “Pyrazolo[1,5-a]pyrimidines useful as inhibitors of protein kinases” (Vertex Pharmaceuticals Incorporated, priority 2004, dated 2009).
# Tests used:
# Aurora-2 = molecular target: T1, Aurora-2 (Homo sapiens, UniProt O14965); assay: Aurora-A (Aurora-2) Inhibition Assay, coupled enzyme assay; type: biochemical; settings: enzyme inhibition data (Ki), Table 11; read-out: AurA Ki
# T1 sequence (O14965 1-403): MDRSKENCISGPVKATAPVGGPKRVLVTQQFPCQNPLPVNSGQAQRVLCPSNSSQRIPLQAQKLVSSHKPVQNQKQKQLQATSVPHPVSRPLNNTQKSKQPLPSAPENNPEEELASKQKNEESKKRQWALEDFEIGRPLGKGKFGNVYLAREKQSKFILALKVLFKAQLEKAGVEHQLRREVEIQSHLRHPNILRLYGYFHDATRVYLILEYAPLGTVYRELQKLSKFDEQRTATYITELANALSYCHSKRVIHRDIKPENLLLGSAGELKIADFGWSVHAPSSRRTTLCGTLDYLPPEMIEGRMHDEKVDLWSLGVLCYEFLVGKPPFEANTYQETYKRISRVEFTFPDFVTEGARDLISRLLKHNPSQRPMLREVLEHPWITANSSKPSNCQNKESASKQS
# Procedure: Compounds are screened for their ability to inhibit Aurora-2 using a standard coupled enzyme assay (Fox et al., Protein Sci., (1998) 7, 2249). Assays are carried out in a mixture of 100 mM Hepes (pH7.5), 10 mM MgCl2, 1 mM DTT, 25 mM NaCl, 2.5 mM phosphoenolpyruvate, 300 μM NADH, 30 μg/ml pyruvate kinase and 10 μg/ml lactate dehydrogenase. Final substrate concentrations in the assay are 400 μM ATP (Sigma Chemicals) and 570 μM peptide (Kemptide, American Peptide, Sunnyvale, Calif.). Assays are carried out at 30° C. and in the presence of 40 nM Aurora-2.
# An assay stock buffer solution is prepared containing all of the reagents listed above, with the exception of Aurora-2 and the test compound of interest. 55 μl of the stock solution is placed in a 96 well plate followed by addition of 2 μl of DMSO stock containing serial dilutions of the test compound (typically starting from a final concentration of 7.5 μM). The plate is preincubated for 10 minutes at 30° C. and the reaction initiated by addition of 10 μl of Aurora-2. Initial reaction rates are determined with a Molecular Devices SpectraMax Plus plate reader over a 10 minute time course. IC50 and Ki data are calculated from non-linear regression analysis using the Prism software package (GraphPad Prism version 3.0cx for Macintosh, GraphPad Software, San Diego Calif., USA).
# Itk = molecular target: T2, Itk (Homo sapiens, UniProt Q08881); assay: ITK Inhibition Assay (Radiometric), radioactive-phosphate incorporation; type: biochemical; settings: enzyme inhibition data (Ki), Table 11; radiometric or UV assay not stated
# T2 sequence (Q08881 1-620): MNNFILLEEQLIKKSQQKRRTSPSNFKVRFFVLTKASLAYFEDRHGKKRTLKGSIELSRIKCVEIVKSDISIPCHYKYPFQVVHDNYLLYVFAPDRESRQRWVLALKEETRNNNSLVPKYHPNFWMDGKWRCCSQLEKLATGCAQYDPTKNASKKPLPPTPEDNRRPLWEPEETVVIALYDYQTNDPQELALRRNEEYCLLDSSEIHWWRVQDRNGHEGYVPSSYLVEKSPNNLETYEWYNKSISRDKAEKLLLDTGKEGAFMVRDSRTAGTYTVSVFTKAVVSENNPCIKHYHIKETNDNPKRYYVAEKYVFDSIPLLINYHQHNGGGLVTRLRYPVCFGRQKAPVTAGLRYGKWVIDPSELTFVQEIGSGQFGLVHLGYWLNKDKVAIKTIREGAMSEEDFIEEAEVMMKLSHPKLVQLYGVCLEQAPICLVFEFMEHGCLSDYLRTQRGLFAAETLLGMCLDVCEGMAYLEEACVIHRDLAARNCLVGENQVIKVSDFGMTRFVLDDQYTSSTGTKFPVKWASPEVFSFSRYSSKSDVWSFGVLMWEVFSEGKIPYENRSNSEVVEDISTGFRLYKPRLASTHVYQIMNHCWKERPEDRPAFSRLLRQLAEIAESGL
# Outline: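 Radiometric 33P incorporation into SAM68 peptide (D332-443) with filter capture and scintillation counting; 10 min pre-incubation then 10 min reaction at 25° C. IC50 format: 30 nM Itk, 15 μM ATP, 2 μM peptide, HEPES pH 7.5. Ki(app) format: 50 nM Itk, 7.5 μM ATP, 3 μM peptide, MOPS pH 7.0.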
SMILES,Ki (Aurora-2),Ki (Itk)
NCc1cccc(-c2cnc3c(-c4ccccn4)c(N)nn3c2)c1 [Compound V-202],500 to 5000 nM,< 500 nM
CNC(=O)c1cnc2c(-c3ccccn3)c(N)nn2c1 [Compound V-204],500 to 5000 nM,500 to 5000 nM
Nc1nn2cc(C(=O)NC3CCCNC3)cnc2c1-c1ccccn1 (stereo not drawn) [Compound V-206],500 to 5000 nM,500 to 5000 nM
CN(C)Cc1cccc(-c2cnc3c(-c4ccccn4)c(N)nn3c2)c1 [Compound V-215],500 to 5000 nM,< 500 nM
COc1ccc(-c2cn3nc(N)c(-c4ccccn4)c3nc2C)cc1 [Compound V-216],500 to 5000 nM,500 to 5000 nM
COc1ccc(-c2cnc3c(-c4ccncc4)c(N)nn3c2)cc1 [Compound V-219],500 to 5000 nM,500 to 5000 nM
Nc1nn2cc(-c3cccc(CO)c3)cnc2c1-c1ccccn1 [Compound V-221],500 to 5000 nM,500 to 5000 nM
Nc1nn2cc(-c3cccc(CN4CCNCC4)c3)cnc2c1-c1ccccn1 [Compound V-223],500 to 5000 nM,< 500 nM
Nc1nn2cc(-c3cccc(CN4CCOCC4)c3)cnc2c1-c1ccccn1 [Compound V-225],500 to 5000 nM,500 to 5000 nM
NC1NN2C=C(c3cccc(CN4CC[C@@H](N)C4)c3)C=NC2=C1c1ccccn1 (stereo partly drawn) [Compound V-226],500 to 5000 nM,< 500 nM
NC1NN2C=C(c3cccc(CN4CC[C@H](N)C4)c3)C=NC2=C1c1ccccn1 (stereo partly drawn) [Compound V-227],500 to 5000 nM,< 500 nM
NC1NN2C=C(c3cccc(CN4CCCNCC4)c3)C=NC2=C1c1ccccn1 (stereo not drawn) [Compound V-228],500 to 5000 nM,< 500 nM
NC1CCN(Cc2cccc(C3=CN4NC(N)C(c5ccccn5)=C4N=C3)c2)CC1 (stereo not drawn) [Compound V-229],500 to 5000 nM,< 500 nM
Nc1nn2cc(-c3ccc(CNC4CCNCC4)cc3)cnc2c1-c1ccccn1 [Compound V-232],500 to 5000 nM,< 500 nM
CC(C)(O)C#Cc1cnc2c(-c3ccccn3)c(N)nn2c1 [Compound V-237],500 to 5000 nM,< 500 nM
Nc1nn2cc(C#CCO)cnc2c1-c1ccccn1 [Compound V-238],500 to 5000 nM,500 to 5000 nM
CC(C)CN(C)c1cc(-c2c(N)nn3cc(-c4ccncc4)cnc23)ncn1 [Compound V-243],< 500 nM,< 500 nM
CCCN(CC)c1cc(-c2c(N)nn3cc(-c4ccncc4)cnc23)ncn1 [Compound V-244],< 500 nM,< 500 nM

# The remaining lines, values ahead:
Ki (Aurora-2),Ki (Itk),SMILES
< 500 nM,< 500 nM,Nc1nn2cc(-c3ccc(CN4CCOCC4)cc3)cnc2c1-c1ccccn1 [Compound V-208]
< 500 nM,< 500 nM,Nc1nn2cc(-c3ccc4[nH]ccc4c3)cnc2c1-c1ccccn1 [Compound V-212]
< 500 nM,< 500 nM,CN(C)Cc1ccc(-c2cnc3c(-c4ccccn4)c(N)nn3c2)cc1 [Compound V-214]
< 500 nM,< 500 nM,Nc1nn2cc(-c3ccc(CN4CCNCC4)cc3)cnc2c1-c1ccccn1 [Compound V-217]
< 500 nM,< 500 nM,Nc1nn2cc(-c3cccc(N4CCNCC4)c3)cnc2c1-c1ccccn1 [Compound V-222]
< 500 nM,< 500 nM,CNCCCN(C)Cc1ccc(-c2cnc3c(-c4ccccn4)c(N)nn3c2)cc1 [Compound V-230]
< 500 nM,< 500 nM,Nc1nn2cc(-c3ccc(CN4CC[C@@H](N)C4)cc3)cnc2c1-c1ccccn1 [Compound V-231]
< 500 nM,< 500 nM,Nc1nn2cc(-c3ccc(CN4CC[C@H](N)C4)cc3)cnc2c1-c1ccccn1 [Compound V-233]
< 500 nM,< 500 nM,Nc1nn2cc(-c3ccc(CN4CCC(N)CC4)cc3)cnc2c1-c1ccccn1 [Compound V-234]
< 500 nM,< 500 nM,CNCc1ccc(-c2cnc3c(-c4ccccn4)c(N)nn3c2)cc1 [Compound V-236]
< 500 nM,< 500 nM,Nc1nn2cc(-c3ccncc3)cnc2c1-c1cc(Nc2ccccc2)ncn1 [Compound V-241]
< 500 nM,< 500 nM,COc1ccccc1Nc1cc(-c2c(N)nn3cc(-c4ccncc4)cnc23)ncn1 [Compound V-242]
